Source: publication PMC8954792 (Viruses, 2022)

How the values were obtained:
cell-free SARS-CoV PsV [1] = test system: cell-free SARS-CoV PsV
MERS-CoV PsV [2] = test system: MERS-CoV PsV
cell-free MERS-CoV PsV [3] = test system: cell-free MERS-CoV PsV
[4] = Cytotoxicity (CCK-8) on Huh-7 cells; details: human
cell-free SARS-CoV-2 PsV = experiment: Inactivation of cell-free SARS-CoV-2 PsV; assay type: cell-based; details: Severe acute respiratory syndrome coronavirus 2
H7N9 PsV = experiment: microbe, parasite or virus in culture; assay type: cell-based, influenza virus; details: Influenza A virus, H7N9, MDCK, read-out: IC50 H7N9
in vitro = details: dog
[5] = Cytotoxicity (CCK-8) on hACE2-293T cells; details: human
MERS-CoV PsV [6] = experiment: microbe, parasite or virus in culture; details: Middle East respiratory syndrome-related coronavirus, Huh-7
cell-free SARS-CoV PsV [7] = experiment: microbe, parasite or virus in culture; details: Severe acute respiratory syndrome coronavirus
SARS-CoV PsV [8] = experiment: microbe, parasite or virus in culture; details: Severe acute respiratory syndrome coronavirus
H5N1 PsV = experiment: microbe, parasite or virus in culture; assay type: cell-based, influenza virus; details: Influenza A virus, H5N1, MDCK, read-out: IC50 H5N1
[9] = test system: pseudotyped SARS-CoV-2 Beta (B.1.351); experiment: microbe, parasite or virus in culture; assay type: cell-based; details: Severe acute respiratory syndrome coronavirus 2, Caco-2
[10] = test system: authentic SARS-CoV-2 WT (nCoV-SH01); experiment: microbe, parasite or virus in culture; assay type: cell-based; details: Severe acute respiratory syndrome coronavirus 2, Vero C1008
SARS-CoV-2 PsV [11] = experiment: microbe, parasite or virus in culture; assay type: cell-based; details: Severe acute respiratory syndrome coronavirus 2
[12] = test system: pseudotyped SARS-CoV-2 Alpha (B.1.1.7); experiment: microbe, parasite or virus in culture; assay type: cell-based; details: Severe acute respiratory syndrome coronavirus 2, Caco-2
[13] = test system: pseudotyped SARS-CoV-2 Omicron (B.1.1.529); experiment: microbe, parasite or virus in culture; assay type: cell-based; details: Severe acute respiratory syndrome coronavirus 2, Caco-2
[14] = test system: pseudotyped SARS-CoV-2 Gamma (P.1); experiment: microbe, parasite or virus in culture; assay type: cell-based; details: Severe acute respiratory syndrome coronavirus 2, Caco-2
cell-free MERS-CoV PsV [15] = experiment: microbe, parasite or virus in culture; details: Middle East respiratory syndrome-related coronavirus, Huh-7
SARS-CoV PsV [16] = test system: SARS-CoV PsV
authentic HCoV-OC43 = experiment: CPE reduction assay, authentic HCoV-OC43; assay type: cell-based; details: Betacoronavirus 1; HCoV-OC43 infection, RD cells, CCK-8
NiV = experiment: microbe, parasite or virus in culture; assay type: cell-based, Nipah virus; details: Henipavirus nipahense, U-87 MG
HPV PsV = assay type: cell-based, human papilloma virus
[17] = test system: authentic ZIKV PRVABC59 (2015/Puerto Rico); experiment: microbe, parasite or virus in culture; assay type: cell-based; details: Zika virus, Vero C1008
EBOV (Sudan) = experiment: microbe, parasite or virus in culture; assay type: cell-based, Ebola virus; details: Zaire ebolavirus, Huh-7
EBOV (Zaire) = experiment: microbe, parasite or virus in culture; assay type: cell-based, Ebola virus; details: Zaire ebolavirus, Huh-7
Vero E6 cells = assay type: cell-based
VSV PsV = experiment: microbe, parasite or virus in culture; assay type: cell-based, vesicular stomatitis virus; details: Vesicular stomatitis virus, Huh-7
HIV-1 6-HB = HIV-1 6-HB (Human immunodeficiency virus type 1, UniProt P04578); experiment: Inhibition of HIV-1 6-HB formation (ELISA); assay type: biochemical; details: HIV-1 6-HB formation measured by ELISA
LASV = experiment: organism not typed; assay type: cell-based, Lassa fever virus; details: Huh-7
authentic EV71 = experiment: CPE reduction assay, authentic EV71; assay type: cell-based, human enterovirus 71 virus; details: RD cells
SARS-CoV-2 PsV [18] = assay type: cell-based

Sequence of HIV-1 6-HB (P04578 536-581, added parts left off): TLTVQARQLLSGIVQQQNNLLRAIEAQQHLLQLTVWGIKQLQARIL
Sequence of HIV-1 6-HB (P04578 536-581, added parts left off): as above

C#CCOc1ccc(CCN2C(=O)/C(=C/c3ccc(-c4ccc(Cl)c(C(=O)O)c4)o3)SC2=S)cc1 [FD007]
SI CC50/EC50 (cell-free SARS-CoV PsV [1]): 21.50
SI CC50/IC50 (MERS-CoV PsV [2]): >250
SI CC50/EC50 (cell-free MERS-CoV PsV [3]): >56.18
CC50 at 48 h [4]: > 50000 nM
EC50 (cell-free SARS-CoV-2 PsV): 960 nM
IC50 (H7N9 PsV): 2130 ± 200 nM
CC50 (in vitro): > 50000 nM
CC50 at 48 h [5]: 33100 ± 1020 nM
IC50 (MERS-CoV PsV [6]): 200 ± 30 nM
EC50 (cell-free SARS-CoV PsV [7]): 1540 ± 140 nM
IC50 (SARS-CoV PsV [8]): 110 ± 10 nM
IC50 (H5N1 PsV): 470 ± 110 nM
IC50 [9]: 810 nM
IC50 [10]: 170 nM
IC50 (SARS-CoV-2 PsV [11]): 320 nM
IC50 [12]: 290 nM
IC50 [13]: 3090 nM
IC50 [14]: 530 nM
EC50 (cell-free MERS-CoV PsV [15]): 890 ± 90 nM
SI CC50/IC50 (SARS-CoV PsV [16]): 301.00

CCC(CC)COC(=O)[C@H](C)N[P@](=O)(OC[C@H]1O[C@@](C#N)(c2ccc3c(N)ncnn23)[C@H](O)[C@@H]1O)Oc1ccccc1 [Remdesivir, remdesivir, reference compound]
IC50 [10]: 1090 nM

O=C(O)c1cc(-c2ccc(/C=C3\SC(=S)N(CCc4ccc(OCC5CC5)cc4)C3=O)o2)ccc1Cl [FD012]
SI CC50/EC50 (cell-free SARS-CoV PsV [1]): 102.50
SI CC50/IC50 (MERS-CoV PsV [2]): 169.27
IC50 (authentic HCoV-OC43): 110 nM
SI CC50/EC50 (cell-free MERS-CoV PsV [3]): 372.40
CC50 at 48 h [4]: 18600 ± 350 nM
EC50 (cell-free SARS-CoV-2 PsV): 40 nM
IC50 (H7N9 PsV): 230 ± 20 nM
IC50 (NiV): 70 ± 10 nM
inhibition of infection of nonenveloped HPV PsV (HPV PsV): could not inhibit
IC50 [17]: 910 nM
CC50 (in vitro): 41700 nM
IC50 (EBOV (Sudan)): 190 ± 20 nM
IC50 (EBOV (Zaire)): 90 ± 20 nM
fluorescence intensity of treated cells (binding to cells) (Vero E6 cells): positively correlated with compound concentration
CC50 at 48 h [5]: 12300 ± 340 nM
IC50 (VSV PsV): 5 nM
IC50 (MERS-CoV PsV [6]): 110 ± 10 nM
IC50 (HIV-1 6-HB): 50100 nM
EC50 (cell-free SARS-CoV PsV [7]): 120 ± 10 nM
IC50 (SARS-CoV PsV [8]): 20 ± 10 nM
IC50 (H5N1 PsV): 150 ± 10 nM
IC50 [9]: 270 nM
IC50 [10]: 410 nM
IC50 (SARS-CoV-2 PsV [11]): 30 nM
IC50 [12]: 350 nM
IC50 (LASV): 320 ± 40 nM
inhibition of infection of authentic EV71 (authentic EV71): could not inhibit
IC50 [13]: 770 nM
IC50 [14]: 250 nM
inhibition of SARS-CoV-2 PsV infection after unbound compound washed from cells (SARS-CoV-2 PsV [18]): not effective in inhibiting viral infection after washing
EC50 (cell-free MERS-CoV PsV [15]): 50 ± 10 nM
inhibitory activity relative to FD001 (SARS-CoV PsV [16]): ~10 fold

O=C(O)c1cc(-c2ccc(/C=C3\SC(=S)N(CCc4ccc(OCc5ccsc5)cc4)C3=O)o2)ccc1Cl [FD013]
SI CC50/EC50 (cell-free SARS-CoV PsV [1]): 186.20
SI CC50/IC50 (MERS-CoV PsV [2]): 618.00
CC50 at 48 h [4]: 30900 ± 630 nM
EC50 (cell-free SARS-CoV-2 PsV): 70 nM
IC50 (H7N9 PsV): 3540 ± 890 nM
CC50 (in vitro): > 50000 nM
CC50 at 48 h [5]: 18600 ± 230 nM
IC50 (MERS-CoV PsV [6]): 50 ± 10 nM
EC50 (cell-free SARS-CoV PsV [7]): 100 ± 10 nM
IC50 (SARS-CoV PsV [8]): 50 ± 10 nM
IC50 (H5N1 PsV): 260 ± 20 nM
IC50 [9]: 310 nM
IC50 [10]: 30 nM
IC50 (SARS-CoV-2 PsV [11]): 120 nM
IC50 [12]: 400 nM
IC50 [13]: 980 nM
IC50 [14]: 410 nM
inhibition of SARS-CoV-2 PsV infection after unbound compound washed from cells (SARS-CoV-2 PsV [18]): not effective in inhibiting viral infection after washing
EC50 (cell-free MERS-CoV PsV [15]): 30 ± 10 nM
SI CC50/IC50 (SARS-CoV PsV [16]): 372.40
